In one assay the test system is H3K27 ac (increase). Description: Cell-based stimulation assay. The following applies: 10 μM.
Another assay has as its system H3K9 ac (increase). Description: Cell-based stimulation assay. The following applies: 10 μM.
The target of assay [1] is sirtuin 1 (h) (activator effect) (Homo sapiens, UniProt Q96EB6). The assay is classed as biochemical. The following applies: 10 μM.
For a further assay, the target named is Deacetylase, Histone 11 (Homo sapiens, UniProt Q96DB2). Description: Deacetylase, Histone 11 (PanLab). The following applies: assay year 2014, read-out: % Control Response. Format: biochemical.
Deacetylase, Histone 11, sequence (Q96DB2 whole entry): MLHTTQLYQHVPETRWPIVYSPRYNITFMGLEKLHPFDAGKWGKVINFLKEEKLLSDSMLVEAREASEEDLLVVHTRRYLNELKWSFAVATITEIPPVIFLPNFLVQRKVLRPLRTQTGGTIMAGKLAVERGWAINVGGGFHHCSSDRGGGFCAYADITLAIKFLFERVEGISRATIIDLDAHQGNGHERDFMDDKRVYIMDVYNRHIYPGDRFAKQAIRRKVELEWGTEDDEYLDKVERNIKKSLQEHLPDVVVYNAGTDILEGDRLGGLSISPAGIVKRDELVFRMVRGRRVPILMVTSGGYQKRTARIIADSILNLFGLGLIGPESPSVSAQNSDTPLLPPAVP
The target of another assay is Deacetylase, Histone 8 (Homo sapiens, UniProt Q9BY41). Description: Deacetylase, Histone 8 (PanLab). The assay is classed as biochemical. The following applies: assay year 2014, read-out: % Control Response.
The next assay concerns the target Deacetylase, Histone 9 (Homo sapiens, UniProt Q9UKV0). Description: Deacetylase, Histone 9 (PanLab). The following applies: assay year 2014, read-out: % Control Response. The assay is classed as biochemical.
Assay [2] concerns the target Deacetylase, Sirtuin SIRT6 (Homo sapiens, UniProt Q8N6T7). Description: Deacetylase, Sirtuin SIRT6 (PanLab). The assay is classed as biochemical. The following applies: assay year 2014, read-out: % Control Response.
The next assay addresses Deacetylase, Histone 5 (Homo sapiens, UniProt Q9UQL6). Description: Deacetylase, Histone 5 (PanLab). The following applies: assay year 2014, read-out: % Control Response. Format: biochemical.
Another assay deals with Deacetylase, Histone 3 (Homo sapiens, UniProt O15379). Description: Deacetylase, Histone 3 (PanLab). Format: biochemical. The following applies: assay year 2014, read-out: % Control Response.
Deacetylase, Histone 3, sequence (O15379 whole entry): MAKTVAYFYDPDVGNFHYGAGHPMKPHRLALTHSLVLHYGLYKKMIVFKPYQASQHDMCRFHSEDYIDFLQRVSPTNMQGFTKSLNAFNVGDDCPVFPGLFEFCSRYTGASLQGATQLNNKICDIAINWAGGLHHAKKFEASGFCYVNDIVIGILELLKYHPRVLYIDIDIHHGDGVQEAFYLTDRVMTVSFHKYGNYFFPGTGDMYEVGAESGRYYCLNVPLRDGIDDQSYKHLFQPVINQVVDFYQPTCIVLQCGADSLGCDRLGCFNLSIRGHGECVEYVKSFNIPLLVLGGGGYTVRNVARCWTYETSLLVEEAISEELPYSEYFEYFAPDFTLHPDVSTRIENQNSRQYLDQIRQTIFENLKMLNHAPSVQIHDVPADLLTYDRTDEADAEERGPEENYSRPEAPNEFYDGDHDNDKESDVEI
Deacetylase, Histone 3, sequence (Q9Y618 395-489 partner limits assumed): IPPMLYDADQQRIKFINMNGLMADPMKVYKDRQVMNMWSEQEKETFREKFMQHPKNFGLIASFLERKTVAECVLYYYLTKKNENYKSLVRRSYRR
Assay [3] deals with Deacetylase, Sirtuin SIRT1 (Homo sapiens, UniProt Q96EB6). Description: Deacetylase, Sirtuin SIRT1 (PanLab). Format: biochemical. The following applies: assay year 2014, read-out: % Control Response.
Deacetylase, Sirtuin SIRT1, sequence (Q96EB6 whole entry): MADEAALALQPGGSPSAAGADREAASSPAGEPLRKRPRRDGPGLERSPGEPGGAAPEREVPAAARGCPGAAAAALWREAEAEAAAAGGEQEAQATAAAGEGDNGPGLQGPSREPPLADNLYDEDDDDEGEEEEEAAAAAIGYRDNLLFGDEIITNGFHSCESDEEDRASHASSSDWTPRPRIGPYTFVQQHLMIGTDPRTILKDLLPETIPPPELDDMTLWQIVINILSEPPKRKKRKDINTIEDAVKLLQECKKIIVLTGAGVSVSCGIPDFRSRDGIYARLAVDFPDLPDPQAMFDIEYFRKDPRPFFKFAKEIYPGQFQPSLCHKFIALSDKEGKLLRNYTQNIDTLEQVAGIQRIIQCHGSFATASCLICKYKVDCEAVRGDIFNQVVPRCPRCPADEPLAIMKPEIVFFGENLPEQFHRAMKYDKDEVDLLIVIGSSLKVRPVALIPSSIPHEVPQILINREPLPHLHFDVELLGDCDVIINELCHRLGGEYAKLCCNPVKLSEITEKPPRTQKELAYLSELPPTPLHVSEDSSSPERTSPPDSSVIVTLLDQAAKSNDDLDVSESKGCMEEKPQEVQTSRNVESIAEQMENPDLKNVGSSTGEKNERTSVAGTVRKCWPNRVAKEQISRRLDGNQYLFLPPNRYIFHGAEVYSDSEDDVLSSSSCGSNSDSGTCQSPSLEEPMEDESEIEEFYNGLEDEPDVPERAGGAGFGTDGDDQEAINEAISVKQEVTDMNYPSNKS
Assay [4] relates to Nitric Oxide Synthase, Inducible (iNOS). Description: Nitric Oxide Synthase, Inducible (iNOS). Format: biochemical. The following applies: 10 μM; assay year 2014.
Assay [5] deals with Nitric Oxide Synthase, Neuronal (nNOS) (Rattus norvegicus, UniProt P29476). Description: Nitric Oxide Synthase, Neuronal (nNOS). Format: biochemical. The following applies: assay year 2014, read-out: % Control Response.
Another assay concerns the target Deacetylase, Histone 4 (Homo sapiens, UniProt P56524). Description: Deacetylase, Histone 4 (PanLab). Format: biochemical. The following applies: assay year 2014, read-out: % Control Response.
Assay [6] relates to Nitric Oxide Synthase, Endothelial (eNOS). Description: Nitric Oxide Synthase, Endothelial (eNOS). Format: biochemical. The following applies: 10 μM; assay year 2014.
For the next assay, the system named is MLL4(h) complex. The following applies: read-out: Reference: (IC50 not given); cited from earlier work.
In a further assay the target is hSMYD2 (Homo sapiens, UniProt Q9NRG4). The following applies: read-out: Reference: (IC50 not given); cited from earlier work.
Another assay concerns the target PRMT3 (h) (Homo sapiens, UniProt O60678). The following applies: read-out: Reference: (IC50 not given); cited from earlier work.
In the next assay the target is DNMT3B/DNMT3L (h) (Homo sapiens, UniProt Q9UBC3). The following applies: read-out: Reference IC50; cited from earlier work.
For a further assay, the target named is NSD1 (h) (Homo sapiens, UniProt Q96L73). The following applies: read-out: Reference: (IC50 not given); cited from earlier work.
For a further assay, the target named is SETD2(h) (Homo sapiens, UniProt Q9BYW2). The following applies: read-out: Reference: (IC50 not given); cited from earlier work.
The target of a further assay is MLL3(h) complex (Homo sapiens, UniProt Q8NEZ4). The following applies: read-out: Reference: (IC50 not given); cited from earlier work.
In a further assay the test system is MLL2(h) complex. The following applies: read-out: Reference: (IC50 not given); cited from earlier work.
Another assay deals with SETDB1 (h) (Homo sapiens, UniProt Q15047). The following applies: read-out: Reference: (IC50 not given); cited from earlier work.
The next assay has as its target DNMT3b (Homo sapiens, UniProt Q9UBC3). The following applies: read-out: Reference IC50; cited from earlier work.
The next assay deals with SUV39H2 (h) (Homo sapiens, UniProt Q9H5I1). The following applies: read-out: Reference: (IC50 not given); cited from earlier work.
Another assay concerns the target melatonin MT1 (ML1A) (h) (Homo sapiens, UniProt P48039). Description: Bioprint radioligand binding assay.
A further assay has as its target cannabinoid CB2 (h) (Homo sapiens, UniProt P34972). Description: Bioprint radioligand binding assay.
The test system of assay [7] is IL-17A secretion from human PBMC stimulated with antiCD3/antiCD28-coated beads. Description: PBMC IL-17 assay (assay number 1321). Format: cell-based.
The target of assay [8] is norepinephrine transporter (h) (Homo sapiens, UniProt P23975). Description: biochemical. Format: binding.
norepinephrine transporter (h), sequence (P23975 whole entry): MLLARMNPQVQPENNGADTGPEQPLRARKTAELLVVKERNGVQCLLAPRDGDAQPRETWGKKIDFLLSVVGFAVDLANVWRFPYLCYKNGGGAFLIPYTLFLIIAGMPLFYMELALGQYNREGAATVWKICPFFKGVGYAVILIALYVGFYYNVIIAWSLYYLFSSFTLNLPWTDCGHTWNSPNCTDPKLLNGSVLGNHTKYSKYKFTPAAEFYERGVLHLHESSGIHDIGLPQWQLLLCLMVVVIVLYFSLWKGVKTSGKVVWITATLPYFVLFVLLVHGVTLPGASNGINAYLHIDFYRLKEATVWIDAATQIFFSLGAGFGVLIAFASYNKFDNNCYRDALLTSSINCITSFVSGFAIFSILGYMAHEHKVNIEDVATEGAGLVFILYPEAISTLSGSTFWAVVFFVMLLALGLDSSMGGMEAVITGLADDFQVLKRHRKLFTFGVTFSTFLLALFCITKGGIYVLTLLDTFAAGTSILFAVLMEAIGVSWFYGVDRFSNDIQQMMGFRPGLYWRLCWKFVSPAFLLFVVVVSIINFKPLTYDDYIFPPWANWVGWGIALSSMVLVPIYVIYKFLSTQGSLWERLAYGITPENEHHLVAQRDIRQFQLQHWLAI
The target of a further assay is COX1 (h) (Homo sapiens, UniProt P23219). Description: Bioprint enzyme assay. Format: biochemical.
COX1 (h), sequence (P23219 24-599): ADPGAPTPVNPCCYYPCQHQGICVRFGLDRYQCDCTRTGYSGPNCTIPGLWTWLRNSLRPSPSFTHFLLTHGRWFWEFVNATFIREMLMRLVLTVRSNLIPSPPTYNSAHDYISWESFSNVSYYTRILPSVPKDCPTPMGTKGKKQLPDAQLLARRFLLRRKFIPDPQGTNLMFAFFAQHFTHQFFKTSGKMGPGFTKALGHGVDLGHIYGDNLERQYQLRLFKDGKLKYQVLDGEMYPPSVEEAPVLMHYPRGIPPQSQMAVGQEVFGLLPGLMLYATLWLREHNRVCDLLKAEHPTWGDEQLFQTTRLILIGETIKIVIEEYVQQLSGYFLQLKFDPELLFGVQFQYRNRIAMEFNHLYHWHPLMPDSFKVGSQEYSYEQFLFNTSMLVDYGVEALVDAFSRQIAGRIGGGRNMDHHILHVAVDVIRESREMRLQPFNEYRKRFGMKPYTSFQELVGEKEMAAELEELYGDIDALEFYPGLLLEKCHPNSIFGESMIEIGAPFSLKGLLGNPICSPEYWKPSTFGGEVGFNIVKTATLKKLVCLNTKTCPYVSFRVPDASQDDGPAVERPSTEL
Another assay concerns the target PPARgamma (h) (Homo sapiens, UniProt P37231). Description: Bioprint radioligand binding assay.
For assay [9], the system named is IL-8 release from IL-17A and TNFα-induced primary human keratinocytes. Description: Keratinocyte IL-8 release (assay number 1250). Format: cell-based.
The test system of another assay is HMEC. Description: OncoPanel normal cell proliferation assay (3-day). The following applies: Homo sapiens, 72 h, HMEC, mammary epithelial, 3-day incubation. Format: cell-based.
Assay [10] concerns the target cholecystokinin CCK1 (CCKA) (h) (Homo sapiens, UniProt P32238). Description: Bioprint radioligand binding assay.
Where [11] appears, read: read-out: % inhibition of control specific binding.

Molecules are shown by their SMILES. Read-outs that look alike come from different tables or passages of the source.

Deacetylase, Sirtuin SIRT6, sequence (Q8N6T7 whole entry): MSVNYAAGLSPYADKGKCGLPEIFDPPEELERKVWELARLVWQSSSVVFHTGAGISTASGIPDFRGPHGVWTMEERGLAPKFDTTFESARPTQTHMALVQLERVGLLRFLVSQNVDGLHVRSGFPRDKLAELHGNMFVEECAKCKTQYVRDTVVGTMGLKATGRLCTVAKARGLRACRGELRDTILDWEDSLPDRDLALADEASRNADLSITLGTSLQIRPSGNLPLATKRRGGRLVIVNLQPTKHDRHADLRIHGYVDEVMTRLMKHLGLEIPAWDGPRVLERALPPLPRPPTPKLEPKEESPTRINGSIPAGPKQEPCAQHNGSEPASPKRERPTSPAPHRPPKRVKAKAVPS
cannabinoid CB2 (h), sequence (P34972 whole entry): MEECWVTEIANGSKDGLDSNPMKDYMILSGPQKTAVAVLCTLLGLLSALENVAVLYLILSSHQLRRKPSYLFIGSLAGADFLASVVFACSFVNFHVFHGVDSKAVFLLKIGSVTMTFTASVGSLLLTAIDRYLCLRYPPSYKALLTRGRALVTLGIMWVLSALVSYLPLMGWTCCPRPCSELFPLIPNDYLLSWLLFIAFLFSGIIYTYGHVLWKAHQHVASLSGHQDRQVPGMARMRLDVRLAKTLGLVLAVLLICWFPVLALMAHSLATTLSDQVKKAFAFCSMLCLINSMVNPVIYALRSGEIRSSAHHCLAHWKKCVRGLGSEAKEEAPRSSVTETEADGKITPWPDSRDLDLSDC
cholecystokinin CCK1 (CCKA) (h), sequence (P32238 whole entry): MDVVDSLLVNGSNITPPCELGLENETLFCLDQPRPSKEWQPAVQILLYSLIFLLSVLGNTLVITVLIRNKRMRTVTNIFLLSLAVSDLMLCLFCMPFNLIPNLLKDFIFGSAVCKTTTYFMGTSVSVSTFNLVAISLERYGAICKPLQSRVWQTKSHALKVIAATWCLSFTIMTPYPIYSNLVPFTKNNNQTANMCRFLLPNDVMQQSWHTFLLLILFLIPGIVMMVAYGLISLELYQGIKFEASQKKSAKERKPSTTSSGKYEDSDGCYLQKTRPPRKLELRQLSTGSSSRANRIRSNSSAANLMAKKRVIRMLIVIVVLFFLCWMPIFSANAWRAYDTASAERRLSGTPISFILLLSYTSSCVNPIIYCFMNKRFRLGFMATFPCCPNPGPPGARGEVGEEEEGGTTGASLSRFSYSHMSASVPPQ
Deacetylase, Histone 9, sequence (Q9UKV0 whole entry): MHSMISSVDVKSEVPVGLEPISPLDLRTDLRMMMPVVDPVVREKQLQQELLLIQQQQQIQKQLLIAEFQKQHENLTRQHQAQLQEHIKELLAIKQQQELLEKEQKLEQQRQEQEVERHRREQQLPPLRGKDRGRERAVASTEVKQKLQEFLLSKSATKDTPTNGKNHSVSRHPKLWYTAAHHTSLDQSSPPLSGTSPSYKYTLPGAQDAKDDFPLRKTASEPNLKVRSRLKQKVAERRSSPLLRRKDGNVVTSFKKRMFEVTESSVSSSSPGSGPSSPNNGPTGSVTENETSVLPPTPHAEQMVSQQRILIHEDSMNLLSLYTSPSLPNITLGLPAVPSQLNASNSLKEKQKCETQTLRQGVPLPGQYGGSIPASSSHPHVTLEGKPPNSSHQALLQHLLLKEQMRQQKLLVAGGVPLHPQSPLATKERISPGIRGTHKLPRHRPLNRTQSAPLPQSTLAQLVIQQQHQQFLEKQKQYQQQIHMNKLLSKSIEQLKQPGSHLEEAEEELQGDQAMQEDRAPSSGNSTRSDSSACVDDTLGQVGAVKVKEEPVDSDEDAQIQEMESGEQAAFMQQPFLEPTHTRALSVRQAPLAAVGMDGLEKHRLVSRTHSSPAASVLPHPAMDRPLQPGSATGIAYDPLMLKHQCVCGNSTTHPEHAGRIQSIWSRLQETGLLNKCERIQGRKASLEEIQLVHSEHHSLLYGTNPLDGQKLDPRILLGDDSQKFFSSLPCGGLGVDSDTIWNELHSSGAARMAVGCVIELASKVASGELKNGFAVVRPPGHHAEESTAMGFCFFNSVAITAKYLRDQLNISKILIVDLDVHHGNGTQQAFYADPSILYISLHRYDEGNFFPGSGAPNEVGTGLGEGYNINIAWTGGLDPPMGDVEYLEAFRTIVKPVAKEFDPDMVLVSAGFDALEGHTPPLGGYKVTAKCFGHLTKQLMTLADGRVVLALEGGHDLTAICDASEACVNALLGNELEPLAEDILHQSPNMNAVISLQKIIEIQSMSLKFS

For the compound `CC(C)=CCC[C@@H]1COc2c(C)cc(O)c3c2[C@H]1CC[C@H]3C` [Compound 3, 5,18-epoxy-8-hydroxyserrulat-14-ene], the figures for the “% Stimulation Relative to Control” value (with H3K27 ac (increase); with H3K9 ac (increase); in assay [1]) were −25%, −8% and −4%, respectively.

Take `CC(C)=CCC[C@@H]1C(O)Oc2c(C)cc(O)c3c2[C@H]1CC[C@H]3C` (stereo partly shown) [Compound 2, 5,18-epoxyserrulat-14-en-8,18-diol]: the remaining activity at 10 µM was 5% on Deacetylase, Histone 11; 13% on Deacetylase, Histone 8; -13% at Deacetylase, Histone 9; 18% in [2]; -11% on Deacetylase, Histone 5; 25% at Deacetylase, Histone 3. The remaining activity at 10 µM is -3% in [3]; 5% in assay [5]; -5% at Deacetylase, Histone 4. The “% Control Response” value is 7% in assay [4] and 5% in assay [6].

Consider `Nc1ncnc2c1ncn2[C@@H]1O[C@H](CSCC[C@H](N)C(=O)O)[C@@H](O)[C@H]1O` [SAH], for which the IC50 (commonly the concentration that gives 50% inhibition) is 0.97 µM in the assay with MLL4(h) complex; 0.16 µM at hSMYD2; 0.86 µM on PRMT3 (h); 0.045 µM at DNMT3B/DNMT3L (h); 0.97 µM at NSD1 (h); 1.2 µM at SETD2(h). Also, the half-maximal inhibitory concentration (IC50) is 0.97 µM at MLL3(h) complex; 0.97 µM in the assay on MLL2(h) complex; 1.8 µM on SETDB1 (h); 0.094 µM on DNMT3b; 24 µM at SUV39H2 (h).

As for `CC(C)=CCC[C@H](CO)[C@@H]1CC[C@@H](C)c2c1cc(C)c(O)c2O` [Compound 1, 7,8,18-trihydroxyserrulat-14-ene], the inhibition (usually the share of the control response that was lost under treatment) at 10 µM on melatonin MT1 (ML1A) (h) (10 μM, read-out: % inhibition of control specific binding) worked out at 91%; on melatonin MT1 (ML1A) (h) (read-out: % Inhibition of Control Specific Binding), 91%; on cannabinoid CB2 (h) (CANNABINOID CB2 (h) (agonist radioligand), read-out: % Inhibition of Control Specific Binding) it was 71%; on cannabinoid CB2 (h) (setting [11]), 71%; in [8] (norepinephrine transporter (h) (antagonist radioligand), read-out: % Inhibition of Control Specific Binding), 76%; in assay [8] (setting [11]) it was 76%. Moreover, the inhibition at 10 µM on COX1 (h) (COX1(h), read-out: % Inhibition of Control Values) is 81%; on COX1 (h) (read-out: % inhibition of control enzyme activity), 81%; on PPARgamma (h) (PPARgamma (h) (agonist radioligand), read-out: % Inhibition of Control Specific Binding) it was 91%; at PPARgamma (h) (setting [11]), 91%; in [10] (CHOLECYSTOKININ CCK1 (CCKA) (h) (agonist radioligand), read-out: % Inhibition of Control Specific Binding) it was 81%; in assay [10] (setting [11]), 81%. The remaining activity at 10 µM is 9% on Deacetylase, Histone 11; 29% at Deacetylase, Histone 8; -14% at Deacetylase, Histone 9; 35% in assay [2]; -9% on Deacetylase, Histone 5; -5% at Deacetylase, Histone 3. For the same compound, the remaining activity at 10 µM in [3] amounted to 6%; in assay [5] it was 14%; at Deacetylase, Histone 4, 4%. Moreover, the “% Stimulation Relative to Control” value with H3K27 ac (increase) is reported as −28%; in the assay with H3K9 ac (increase), −21%; in assay [1], −5%. In addition, the Emax in [7] (read-out: Inhibition of IL-17A release, Max Effect) worked out at 100%; in assay [9] (read-out: Inhibition of IL-8 release, Max Effect), 110%. Moreover, the concentration giving a half-maximal response (EC50) (as a rule, the concentration that produces a half-maximal response) in assay [7] (read-out: Inhibition of IL-17A release, Rel EC50) came to 0.32 µM; in assay [9] (read-out: Inhibition of IL-8 release, Rel EC50) it was 0.157 µM; in the assay with HMEC (read-out: Cell Count EC50) it was 30 µM. In addition, the GI50 (as a rule, the concentration at which growth is held to half of that of the control) with HMEC (read-out: Cell Count GI50) worked out at 6.39 µM. For the same compound, in the assay with HMEC (read-out: Cell Count IC50), the half-maximal inhibitory concentration (IC50) is 30 µM. For the same compound, the “% Control Response” value in assay [4] was 16%; in assay [6], 6%.

(Values after US11331299B2, “Medicinal use of serrulatane diterpenes” (The University of Sydney, priority 2016, dated 2022).)
